Laboratory results: patent US8475814B2 (priority 2003, dated 2013)

Assays:
[1] = Example 1: percutaneous [3H]-4-hydroxy tamoxifen delivery, radioactivity in breast tissue and blood of breast cancer patients; type: in vivo, human
Method: The patients received [^3H]-labeled drug applied directly on the affected breasts at specified intervals ranging from 12 hours to 7 days before surgery to excise diseased tissue. Breast tissue from three regions: the tumor, tissue immediately surrounding the tumor, and normal tissue, was excised and immediately frozen in liquid nitrogen. Additionally, plasma and urine samples were obtained at scheduled intervals and frozen until analysis.

[2] = Example 3: plasma pharmacokinetics of 4-hydroxy tamoxifen gel in healthy premenopausal women; type: in vivo, human; conditions: for t1/2 (Range): 57 mg/100 g gel, last administration
Method: Each participant applied the gel daily for the duration of two menstrual cycles.
At the end of a menstrual cycle, each patient received a single dose, after which serial blood samples were collected at 0, 0.5, 1, 1.5, 2, 3, 4, 6, 12, 18, 24, 36, 48, and 72 hours.
On the first day of the following menstruation, treatment, which consisted of daily application of the gel over two menstrual cycles, began. Blood samples were collected 24 hours following the morning application of gel on days 7, 20 and 25 of the first and second cycles. On the last day of administration, day 25 of the second menstrual cycle, serial blood samples were collected prior to application and at 0.5, 1, 1.5, 2, 3, 4, 6, 12, 18, 24, 36, 48, and 72 hours after application of the gel.

[3] = system: Ki67 antigen (tumor tissue proliferation index); experiment: Example 4: Ki67 labeling index in breast tumor tissue; type: in vivo, human; conditions: for mean Ki-67 LI scores after treatment compared to the untreated group: adjusted for baseline, P=0.0054
Text: Participants in the study were postmenopausal women diagnosed with estrogen receptor positive invasive breast cancer, as determined by Trucut biopsy. Criteria for enrollment included age >50 years, histologically confirmed T1 or T2 estrogen receptor positive primary breast cancer, and fit for surgery within 1 month of the biopsy. Patients with inflammatory cancer, known metastasis or lymph node involvement were excluded as were patients with previous radiotherapy or chemotherapy and ongoing hormone replacement therapy (a minimum washout period of 8 days was observed before the Tru-cut biopsy). Other exclusion criteria were a history of thrombophlebitis requiring anticoagulant treatment, retinopathy, cutaneous allergy to alcohol or mammary dermatitis contraindicating the application of a gel.
Patients were scheduled for tumor resection surgery with curative intent between day 15 and day 22 after the start of treatment. On the day prior to surgery, a blood sample was also obtained for determination of 4-OHT concentrations. […]
Ki67 and Proliferating Cell Nuclear Antigen (PCNA) labeling indices (LI) were assessed on paraffin embedded sections of the pre- and post-treatment tissue specimens. The Ki67 antigen was assessed using the monoclonal antibody MIB 1 (DAKO, Denmark) as used in routine conditions in pathology. […] Six serial sections were analyzed per case in order to standardize sampling. […] For each preparation, optical density (OD) thresholds were determined using real microscopic images of the analyzed field as reference. […] Twenty fields were analyzed for each section. Stained nuclear surface was determined (segmentation and thresholding) and a LI scored (stained cells/counterstained elements). […] Control of immunostaining quantitative analysis and reproducibility of the procedure were performed: —by comparison to iterative measurements done on the same preparations, —by comparison to measurements compiled on six sequential sections of the same specimen. […] Results were expressed as LI.

[4] = Example 4: 4-OHT assay in plasma, tumor tissue and normal tissue (GC-MS NICI); type: in vivo, human; conditions: 2-3 weeks
Text: Patients were scheduled for tumor resection surgery with curative intent between day 15 and day 22 after the start of treatment. On the day prior to surgery, a blood sample was also obtained for determination of 4-OHT concentrations. On the day of surgery, patients were reassessed for concomitant therapy, concomitant conditions, hematology, biochemistry, plasma 4-OHT, estrone (E1), and estradiol (E2) concentrations.
Concentrations of 4-OHT in plasma, tumor tissue, and normal tissue were performed using Gas Chromatography (GC) combined with Mass Spectrometry (MS) used in the Negative Ion Chemical Ionization-mode (NICI) (Girault, 1993). The quantification limits of the method were 5 pg/ml for the plasma and 50 pg/g for tissue samples respectively. Tumor extracts and normal breast tissue obtained at the time of surgery (after treatment) were stored in liquid nitrogen until subsequent assay of 4-OHT.

[5] = target: T1, estrone sulphatase (Homo sapiens, UniProt P08842); conditions: mammary cancer cell lines; cited from earlier work
T1 construct: estrone sulphatase activity in mammary cancer cell lines
T1 sequence (P08842 22-583): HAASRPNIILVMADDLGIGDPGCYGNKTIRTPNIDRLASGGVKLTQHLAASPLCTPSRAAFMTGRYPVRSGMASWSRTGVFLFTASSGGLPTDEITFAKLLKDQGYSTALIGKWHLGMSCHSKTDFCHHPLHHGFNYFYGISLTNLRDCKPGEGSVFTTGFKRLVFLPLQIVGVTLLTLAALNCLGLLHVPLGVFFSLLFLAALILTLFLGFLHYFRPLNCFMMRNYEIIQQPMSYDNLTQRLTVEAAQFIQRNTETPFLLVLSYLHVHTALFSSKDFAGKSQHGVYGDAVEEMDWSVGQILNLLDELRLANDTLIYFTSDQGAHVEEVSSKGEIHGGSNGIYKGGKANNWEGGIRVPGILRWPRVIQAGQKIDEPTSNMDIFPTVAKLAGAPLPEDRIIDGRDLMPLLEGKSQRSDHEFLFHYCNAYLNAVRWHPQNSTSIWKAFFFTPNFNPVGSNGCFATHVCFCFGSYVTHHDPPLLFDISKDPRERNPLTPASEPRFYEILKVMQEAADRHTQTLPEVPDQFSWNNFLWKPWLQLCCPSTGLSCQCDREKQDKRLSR

[6] = system: estrogen receptors; conditions: in vitro; cited from earlier work
[7] = system: p53(−) normal human mammary epithelial cells; conditions: cited from earlier work
[8] = cited from earlier work
[9] = 12 hr after percutaneous Z-[3H]-4-hydroxy tamoxifen
[10] = 24 hours after percutaneous [3H]-4-hydroxy tamoxifen
[11] = 24 hr after percutaneous Z-[3H]-4-hydroxy tamoxifen
[12] = 36 hr after percutaneous Z-[3H]-4-hydroxy tamoxifen
[13] = Day 4 after percutaneous Z-[3H]-4-hydroxy tamoxifen
[14] = Day 7 after percutaneous Z-[3H]-4-hydroxy tamoxifen

| SMILES | % Metabolites in Breast Tissue [1, 13] | % Metabolites in Breast Tissue [1, 14] | % Metabolites in Breast Tissue ([1]; human, in vivo) | mean Ki-67 LI scores after treatment compared to the untreated group [3] | effect on estrone sulphatase activity [5] | % Metabolites in Breast Tissue [1, 9] | % of radioactivity in blood [1, 10] | % Metabolites in Breast Tissue [1, 11] | % Metabolites in Breast Tissue [1, 12] | other results |
| --- | --- | --- | --- | --- | --- | --- | --- | --- | --- | --- |
| CCC(=C(c1ccc(O)cc1)c1ccc(OCCN(C)C)cc1)c1ccccc1 (single isomer, unassigned) [E isomer] | – | – | 33% | – | – | – | – | – | – | – |
| CCC(=C(c1ccc(O)cc1)c1ccc(OCCN(C)C)cc1)c1ccccc1 [4-hydroxy tamoxifen, 1-[4-(2-N-dimethylaminoethoxy)phenyl]-1-(4-hydroxyphenyl)-2-phenylbut-1-ene] | – | – | – | significantly lower | significant inhibitory effect | – | – | – | – | % of radioactivity in blood ([1]; human, in vivo): 68%; radioactivity administered that showed in the blood ([1]; human, in vivo): 0.5%; retention in the breast ([1]; human, in vivo): approximately 4 days; time of plateau of radioactivity in blood ([1]; human, in vivo): 4 to 6 days; t1/2 (Range) ([2]; 1 mg/day): (58-118) hr; t1/2 (Range) ([2]; 2 mg/day): (49-101) hr; plasma concentrations after the last gel application ([2]; 72 hours after the last gel application): remained detectable; plasma concentrations of 4-hydroxy tamoxifen after a single dose ([2]; single 0.5 mg dose): did not produce detectable plasma concentrations; patients with detectable plasma concentrations (>5 pg/mL) ([2]; single dose of 1 mg): 6 of 12; plasma concentrations of 4-hydroxy tamoxifen versus typical estradiol concentrations ([2]; topical application, 0.5-2 mg/day): < 0.08 ng/mL; dose dependence of mean Ki-67 LI score after treatment ([3]; 0.5, 1.0, 2.0 mg/d): dose-dependent; 4-OHT concentration in Tumor, Median (min:max) ([4]; gel 0.5 mg/d): 687 pg/g; 4-OHT concentration in Tumor, Median (min:max) ([4]; gel 1.0 mg/d): 1377 pg/g; 4-OHT concentration in Tumor, Median (min:max) ([4]; gel 2.0 mg/d): 1698 pg/g; potency as measured by binding affinity to estrogen receptors, compared with tamoxifen [6]: more potency than tamoxifen |
| CCC(=C(c1ccc(O)cc1)c1ccc(O)cc1)c1ccccc1 [Bisphenol] | 8% | 8% | – | – | – | 1% | 11% | 2% | 3% | – |
| CC/C(=C(\c1ccc(O)cc1)c1ccc(OCCN(C)C)cc1)c1ccccc1 [Z-4-hydroxy tamoxifen] | – | – | 32% | – | – | – | – | – | – | – |

Continued, in another order:

| % Metabolites in Breast Tissue [1, 13] | % Metabolites in Breast Tissue [1, 14] | SMILES | % Metabolites in Breast Tissue ([1]; human, in vivo) | mean Ki-67 LI scores after treatment compared to the untreated group [3] | effect on estrone sulphatase activity [5] | % Metabolites in Breast Tissue [1, 9] | % of radioactivity in blood [1, 10] | % Metabolites in Breast Tissue [1, 11] | % Metabolites in Breast Tissue [1, 12] | other results |
| --- | --- | --- | --- | --- | --- | --- | --- | --- | --- | --- |
| 20% | 16% | CCC(=C(c1ccc(O)cc1)c1ccc(OCCNC)cc1)c1ccccc1 [N-Desmethyl-4-Hydroxy Tamoxifen] | – | – | – | 2% | 18% | 4% | 14% | – |
| <1% | 2% | CC/C(=C(\c1ccccc1)c1ccc(OCCN(C)C)cc1)c1ccccc1 [tamoxifen, reference compound] | – | significantly lower | little or no effect | – | – | – | – | time of plateau of radioactivity in blood ([1]; percutaneous application): 2 days; retention in the breast ([1]; percutaneous application to the affected breast): shorter and far weaker; initiation of apoptosis [7]: initiates apoptosis; rat liver carcinogenicity [8]: potent rat liver carcinogen |
